Measurements: patent publication EP0355039A2, “Methods and means for controlling the stability of proteins” (priority 1988, dated 1990)

Experiments:
Format in all cases: biochemical
[1] = target: T1, Actinoplanes missouriensis (DSM 43046) D-glucose isomerase EcoAmi(DSM) GI mutant K253Q (Lys-253 to Gln) (Actinoplanes missouriensis, UniProt P12851, K253Q)
T1 construct: made in house; host or cells: E. coli K514
Procedure: (§1) The enzymatic activity of glucose isomerase was assayed as described below (1 unit of enzymatic activity produces 1.0 micromole of product -D-xylulose or D-fructose- per minute; therefore, specific activity -spa- is expressed as units per mg of GI enzyme).
(§2) In the D-Sorbitol Dehydrogenase Coupled Assay, enzymatic determination of D-xylulose was performed at 35°C as previously described (Kersters-Hilderson et al., 1987) in 50mM triethanolamine, pH 7.5, 10mM MgSO₄, and 0.1 M xylose, in the presence of ∼ 2 x 10⁻⁸ M D-sorbitol dehydrogenase (L-iditol : NAD oxidoreductase, EC 1.1.1.14), and 0.15mM NADH, except that the incubation buffer also included 1mM ethylenebis(oxyethylenenitrilo)tetraacetic acid (EGTA). Glucose isomerase final concentration in this assay was about 2.5 x 10⁻³ mg/ml, and precisely determined as described above.
(§3) With glucose as a substrate, GI activity can be assayed by measuring the amount of D-fructose produced during the isomerization reaction using the cysteine-carbazole method which is based on the reaction of ketosugars with carbazole in acids to yield a purple product (Dische and Borenfreund, 1951).

[2] = target: T2, Actinoplanes missouriensis (DSM 43046) D-glucose isomerase EcoAmi(DSM) GI mutant K253R (Lys-253 to Arg) (Actinoplanes missouriensis, UniProt P12851, K253R)
T2 construct: made in house; host or cells: E. coli K514
Procedure: as §1, §2, §3

[3] = target: T3, Actinoplanes missouriensis (DSM 43046) D-glucose isomerase (D-xylose isomerase, EC 5.3.1.5) EcoAmi(DSM) GI, wild type (WT-GI) (Actinoplanes missouriensis, UniProt P12851); assay: Glucose isomerase catalytic parameters (D-sorbitol dehydrogenase coupled assay for D-xylose; cysteine-carbazole method for D-glucose)
T3 construct: made in house; host or cells: E. coli K514
Procedure: as §1, §2, §3

[4] = D-xylose as substrate, coupled assay, 35°C, 50mM triethanolamine pH 7.5, 10mM MgSO4

T3 sequence (P12851 whole entry): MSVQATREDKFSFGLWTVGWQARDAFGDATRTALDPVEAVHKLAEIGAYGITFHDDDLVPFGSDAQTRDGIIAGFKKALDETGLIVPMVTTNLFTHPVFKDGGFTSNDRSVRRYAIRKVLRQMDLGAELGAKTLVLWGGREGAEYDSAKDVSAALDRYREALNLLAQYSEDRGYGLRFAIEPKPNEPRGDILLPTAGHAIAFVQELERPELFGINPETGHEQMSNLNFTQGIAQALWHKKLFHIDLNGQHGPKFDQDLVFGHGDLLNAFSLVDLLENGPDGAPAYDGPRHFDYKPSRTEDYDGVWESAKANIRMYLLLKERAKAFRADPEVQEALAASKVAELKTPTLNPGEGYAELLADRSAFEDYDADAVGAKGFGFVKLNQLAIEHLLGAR
T2 sequence (P12851 whole entry K253R): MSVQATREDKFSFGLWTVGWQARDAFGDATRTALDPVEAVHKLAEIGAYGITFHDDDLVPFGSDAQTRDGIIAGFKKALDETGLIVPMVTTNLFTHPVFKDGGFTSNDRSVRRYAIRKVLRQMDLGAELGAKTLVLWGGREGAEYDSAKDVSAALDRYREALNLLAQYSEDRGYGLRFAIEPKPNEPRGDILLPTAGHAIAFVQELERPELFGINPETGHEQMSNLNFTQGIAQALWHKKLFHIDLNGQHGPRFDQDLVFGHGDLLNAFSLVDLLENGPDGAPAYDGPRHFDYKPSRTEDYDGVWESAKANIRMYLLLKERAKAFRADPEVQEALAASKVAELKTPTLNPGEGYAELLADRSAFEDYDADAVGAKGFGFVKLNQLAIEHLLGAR
T1 sequence (P12851 whole entry K253Q): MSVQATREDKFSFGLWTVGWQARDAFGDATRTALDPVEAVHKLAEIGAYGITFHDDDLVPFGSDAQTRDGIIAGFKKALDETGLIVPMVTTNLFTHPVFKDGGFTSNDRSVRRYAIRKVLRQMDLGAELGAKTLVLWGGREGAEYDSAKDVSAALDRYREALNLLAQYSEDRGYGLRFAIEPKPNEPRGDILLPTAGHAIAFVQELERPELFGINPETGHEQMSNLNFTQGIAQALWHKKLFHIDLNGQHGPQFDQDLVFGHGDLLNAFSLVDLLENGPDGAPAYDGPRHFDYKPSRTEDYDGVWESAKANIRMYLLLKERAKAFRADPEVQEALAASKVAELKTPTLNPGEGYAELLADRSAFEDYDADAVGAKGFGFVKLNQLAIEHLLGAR

Substance	Vmax (Glucose) ([1]; D-glucose as substrate)	Vmax (Glucose) ([2]; D-glucose as substrate)	Vmax (Glucose) ([3]; D-glucose as substrate)	Km [1, 4] [mM]	Vmax (Xylose) [1, 4]	Km [2, 4] [mM]	Vmax (Xylose) [2, 4]	Km [3, 4] [mM]	Vmax (Xylose) [3, 4]
D-glucose	29.0 units per mg of enzyme	27.2 units per mg of enzyme	30.6 units per mg of enzyme						
D-xylose				4.4	15.1 units per mg of enzyme	5.3	24.6 units per mg of enzyme	4.8	24.2 units per mg of enzyme
